# ChEMBL document CHEMBL1201862, “PubChem BioAssay data set” (2004)
#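 Dose response: 5 concentrations. Exposure: 48 h. Format: 96-well plates. Endpoint: linear interpolation; highest concentration if not reached. At the GI50, growth is halved.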 Calls of active or inactive are those of the source. Cut-off read from the data, not from the text of the source: active = GI50 up to about 1.1 µM and inactive = higher.
# How the values were obtained:
# Assay in all cases: NCI tumour cell line growth inhibition, 48 h
# 786-0 = test system: 786-0
# A498 = test system: A498
# A549 = test system: A549
# CAKI-1 = test system: CAKI-1
# CCRF-CEM = test system: CCRF-CEM
# COLO 205 = test system: COLO 205
# DLD-1 = test system: DLD-1
# DMS-114 = test system: DMS-114
# DMS-273 = test system: DMS-273
# EKVX = test system: EKVX
# HCC 2998 = test system: HCC 2998
# HCT-116 = test system: HCT-116
# HL-60 = test system: HL-60
# HOP-62 = test system: HOP-62
# HOP-92 = test system: HOP-92
# HT-29 = test system: HT-29
# IGROV-1 = test system: IGROV-1
# K562 = test system: K562
# KM12 = test system: KM12
# LXFL 529 = test system: LXFL 529
# M14 = test system: M14
# M19-MEL = test system: M19-MEL
# MOLT-4 = test system: MOLT-4
# Malme-3M = test system: Malme-3M
# NCI-H226 = test system: NCI-H226
# NCI-H23 = test system: NCI-H23
# NCI-H522 = test system: NCI-H522
# OVCAR-3 = test system: OVCAR-3
# OVCAR-4 = test system: OVCAR-4
# OVCAR-8 = test system: OVCAR-8
# RPMI-8226 = test system: RPMI-8226
# RXF 631 = test system: RXF 631
# SF-268 = test system: SF-268
# SF-295 = test system: SF-295
# SF-539 = test system: SF-539
# SK-MEL-28 = test system: SK-MEL-28
# SK-MEL-2 = test system: SK-MEL-2
# SK-MEL-5 = test system: SK-MEL-5
# SK-OV-3 = test system: SK-OV-3
# SN12C = test system: SN12C
# SNB-19 = test system: SNB-19
# SNB-75 = test system: SNB-75
# SNB-78 = test system: SNB-78
# SR = test system: SR
# SW-620 = test system: SW-620
# TK-10 = test system: TK-10
# UACC-257 = test system: UACC-257
# UACC-62 = test system: UACC-62
# UO-31 = test system: UO-31
# XF498 = test system: XF498
# HCT-15 = test system: HCT-15
# KM-20L2 = test system: KM-20L2
# LOX IMVI = test system: LOX IMVI
# NCI-H460 = test system: NCI-H460
# OVCAR-5 = test system: OVCAR-5
# RXF 393 = test system: RXF 393
# U-251 = test system: U-251
smiles,measurement,setting,value
O=S1(=O)OCCOS(=O)(=O)C1I,GI50,786-0,71 µM (inactive)
same,GI50,A498,> 100 µM (inactive)
same,GI50,A549,> 100 µM (inactive)
same,GI50,CAKI-1,> 100 µM (inactive)
same,GI50,CCRF-CEM,86.9 µM (inactive)
same,GI50,COLO 205,> 100 µM (inactive)
same,GI50,DLD-1,> 100 µM (inactive)
same,GI50,DMS-114,> 100 µM (inactive)
same,GI50,DMS-273,> 100 µM (inactive)
same,GI50,EKVX,> 100 µM (inactive)
same,GI50,HCC 2998,> 100 µM (inactive)
same,GI50,HCT-116,> 100 µM (inactive)
same,GI50,HL-60,53.2 µM (inactive)
same,GI50,HOP-62,> 100 µM (inactive)
same,GI50,HOP-92,> 100 µM (inactive)
same,GI50,HT-29,> 100 µM (inactive)
same,GI50,IGROV-1,> 100 µM (inactive)
same,GI50,K562,> 100 µM (inactive)
same,GI50,KM12,> 100 µM (inactive)
same,GI50,LXFL 529,> 100 µM (inactive)
same,GI50,M14,> 100 µM (inactive)
same,GI50,M19-MEL,> 100 µM (inactive)
same,GI50,MOLT-4,75.3 µM (inactive)
same,GI50,Malme-3M,> 100 µM (inactive)
same,GI50,NCI-H226,28.6 µM (inactive)
same,GI50,NCI-H23,> 100 µM (inactive)
same,GI50,NCI-H522,> 100 µM (inactive)
same,GI50,OVCAR-3,> 100 µM (inactive)
same,GI50,OVCAR-4,> 100 µM (inactive)
same,GI50,OVCAR-8,> 100 µM (inactive)
same,GI50,RPMI-8226,> 100 µM (inactive)
same,GI50,RXF 631,> 100 µM (inactive)
same,GI50,SF-268,92.5 µM (inactive)
same,GI50,SF-295,56.2 µM (inactive)
same,GI50,SF-539,> 100 µM (inactive)
same,GI50,SK-MEL-28,> 100 µM (inactive)
same,GI50,SK-MEL-2,> 100 µM (inactive)
same,GI50,SK-MEL-5,66.8 µM (inactive)
same,GI50,SK-OV-3,> 100 µM (inactive)
same,GI50,SN12C,> 100 µM (inactive)
same,GI50,SNB-19,77.4 µM (inactive)
same,GI50,SNB-75,> 100 µM (inactive)
same,GI50,SNB-78,> 100 µM (inactive)
same,GI50,SR,91.8 µM (inactive)
same,GI50,SW-620,> 100 µM (inactive)
same,GI50,TK-10,> 100 µM (inactive)
same,GI50,UACC-257,> 100 µM (inactive)
same,GI50,UACC-62,40.1 µM (inactive)
same,GI50,UO-31,48.5 µM (inactive)
same,GI50,XF498,> 100 µM (inactive)
O=C1OC(c2ccccc2)C2CC3CC4(CCC3CN12)OCCO4 (configuration not stated),GI50,786-0,> 100 µM (inactive)
same,GI50,A498,> 100 µM (inactive)
same,GI50,A549,> 100 µM (inactive)
same,GI50,CAKI-1,> 100 µM (inactive)
same,GI50,CCRF-CEM,> 100 µM (inactive)
same,GI50,COLO 205,> 100 µM (inactive)
same,GI50,DMS-273,> 100 µM (inactive)
same,GI50,EKVX,> 100 µM (inactive)
same,GI50,HCT-116,> 100 µM (inactive)
same,GI50,HCT-15,> 100 µM
same,GI50,HL-60,67.8 µM (inactive)
same,GI50,HOP-62,> 100 µM (inactive)
same,GI50,HOP-92,80 µM (inactive)
same,GI50,HT-29,> 100 µM (inactive)
same,GI50,IGROV-1,> 100 µM (inactive)
same,GI50,K562,45.9 µM (inactive)
same,GI50,KM-20L2,> 100 µM (inactive)
same,GI50,KM12,> 100 µM (inactive)
same,GI50,LOX IMVI,> 100 µM (inactive)
same,GI50,LXFL 529,32.7 µM (inactive)
same,GI50,M14,> 100 µM (inactive)
same,GI50,MOLT-4,> 100 µM (inactive)
same,GI50,NCI-H226,> 100 µM (inactive)
same,GI50,NCI-H23,36.9 µM (inactive)
same,GI50,NCI-H460,> 100 µM (inactive)
same,GI50,NCI-H522,0.142 µM (active)
same,GI50,OVCAR-3,> 100 µM (inactive)
same,GI50,OVCAR-4,88.5 µM (inactive)
same,GI50,OVCAR-5,> 100 µM (inactive)
same,GI50,OVCAR-8,> 100 µM (inactive)
same,GI50,RPMI-8226,94 µM (inactive)
same,GI50,RXF 393,> 100 µM (inactive)
same,GI50,RXF 631,> 100 µM (inactive)
same,GI50,SF-268,> 100 µM (inactive)
same,GI50,SF-295,> 100 µM (inactive)
same,GI50,SF-539,> 100 µM (inactive)
same,GI50,SK-MEL-28,> 100 µM (inactive)
same,GI50,SK-MEL-2,> 100 µM (inactive)
same,GI50,SK-MEL-5,17.9 µM (inactive)
same,GI50,SK-OV-3,> 100 µM (inactive)
same,GI50,SN12C,> 100 µM (inactive)
same,GI50,SNB-19,> 100 µM (inactive)
same,GI50,SNB-75,52 µM (inactive)
same,GI50,SNB-78,> 100 µM (inactive)
same,GI50,SR,> 100 µM (inactive)
same,GI50,SW-620,> 100 µM (inactive)
same,GI50,TK-10,> 100 µM (inactive)
same,GI50,U-251,> 100 µM (inactive)
same,GI50,UACC-257,> 100 µM (inactive)
same,GI50,UACC-62,21.5 µM (inactive)
same,GI50,UO-31,> 100 µM (inactive)
same,GI50,XF498,70.8 µM (inactive)
